From patent US12635683B2, “Preservation of natural and bioengineered tissues and methods of storing and transport” (LifeNet Health, priority 2021, dated 2026)

Tested on: Epiderm construct
Assay: Construct viability after vitrification and rewarming (metabolic activity)
Assay type: cell-based, human
Conditions: αT and QVD added together to culture medium before and after vitrification
Experimental: Tissue Culture: Human epidermal models were obtained from commercial sources and maintained according to their specifications. All constructs were incubated in appropriate media for 24 hours under physiological tissue culture conditions before initiating experiments. Fresh controls were used in each experiment and experimental treatment groups were assessed over 4-5 days post-rewarming.
Vitrification Methods: The constructs were gradually infiltrated with precooled vitrification formulations at 4° C. in six steps with 0%, 12.5%, 25%, 50%, 75% and 100% of each formulation to achieve a final cryoprotectant concentration. After rewarming, the vitrification solution was removed in seven sequential steps at 4° C. into culture medium as previously described (see Song et al., Vitreous cryopreservation maintains the function of vascular grafts, Nature Biotechnology, 8(3):296-9, Epub 2000/03/04, doi:10.1038/73737, PubMed PMID: 10700144 (2000); and Song et al., Vitreous Preservation of Rabbit Articular Cartilage, Cell Preservation Technology, 2 (1); 67-74 (2004)).
Once loaded with vitrification solution the construct can be cooled to storage temperature and rewarmed using several methods. (1) The constructs were placed in glass scintillation vials (Diam.×H, 25 mm×60 mm) containing 1.5 mL of pre-cooled vitrification solution with 0.3 mL solution inside the well insert. Then 1 mL of 2-methylbutane (isopentane, freezing point: −160° C., density: 0.62) was placed on top of the vitrification solution in the vial and 0.2 mL inside the well insert at 4° C. to prevent direct air contact. Samples were cooled rapidly (approximately 45° C./minute) to −100° C. by placing the samples in a pre-cooled bath containing isopentane in a −135° C. mechanical storage freezer. Upon achieving −100° C. the specimens were removed from the bath and stored at −135° C. in the mechanical storage freezer, which results in slow cooling (3° C./minute) to −135° C. The samples were held at −135° C. for a minimum of 24 hours. The constructs were rewarmed in two stages, first, slow warming to −100° C. (approximately 30° C./minute) at the top of the mechanical storage freezer and then rapidly warmed to either 0° C. or ±−10° C. approximately 225° C./min) in a 30% ME2SO bath at room temperature. (2) The constructs in inserts are placed within the well of a deep well plate. There is 0.6 mL vitrification solution in the well and 0.2 mL solution in the insert. […]
Resazurin Assay: Was used to measure the metabolic activity and has the advantage of being non-toxic so constructs can be assessed before and several times after treatment. […]

Row | SMILES | Effect of additive in culture medium on construct viability | Effect of additive in culture medium on construct viability (listed as αT) | Effect of additive in culture medium on construct viability (listed as QVD)
1 | Cc1c(C)c2c(c(C)c1O)CC[C@@](C)(CCC[C@H](C)CCC[C@H](C)CCCC(C)C)O2 [α-tocopherol] | improved viability | significant improvement | 
2 | CC(C)[C@H](NC(=O)c1ccc2ccccc2n1)C(=O)N[C@@H](CC(=O)O)C(=O)COc1c(F)cccc1F [Q-VD-OPH, quinoline-Val-Asp-difluorophenoxymethyl ketone] | improved viability |  | significant improvement
